For 36 molecules, class and IC50 results are on record in patent publication US20070010671A1, “Novel quinazoline derivatives and methods of treatment related to the use thereof” (priority 2003, published 2007).

The first assay has as its target MCH receptor (Homo sapiens, UniProt Q99705). The experiment in a line: High throughput functional screening FLIPR/FDSS6000: inhibition of MCH-evoked intracellular Ca2+ changes. It counts as cell-based. The conditions noted are these: class by percent of control at 10^-7 M or IC50. The method, boiled down:
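Cells expressing a non-endogenous, constitutively active MCH receptor were loaded with 4 μM Fluo4-AM (with probenecid) for 1 hr at 37° C. Test compound was preincubated 3 min at 37° C before 50 nM MCH was added. The [Ca2+]i transient was read at Ex 488/Em 530 nm for 290 s.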
In the case of `CN(C)c1nc(N[C@H]2CC[C@@H](NC(=S)Nc3ccc([N+](=O)[O-])cc3Cl)CC2)nc2ccccc12` [compound 214], the class is listed as 2 (Class 2: The value of percent of control at 10^−7 M was from 40% to 60% or the value of IC50 was from 50 nM to 200 nM.). Still for that read-out and setting: the result for `COC(=O)c1ccc(NC(=S)N[C@H]2CC[C@@H](Nc3nc(N(C)C)c4ccccc4n3)CC2)cc1` [compound 278] reads 2 (Class 2: The value of percent of control at 10^−7 M was from 40% to 60% or the value of IC50 was from 50 nM to 200 nM.); that for `CN(C)c1nc(N[C@H]2CC[C@@H](NC(=S)NCc3cccc(Cl)c3)CC2)nc2ccccc12` [compound 305, N-(3-chlorobenzyl)-N′-(cis-4-{[4-(dimethylamino)quinazolin-2-yl]amino}cyclohexyl)thiourea], 1 (Class 1: The value of percent of control at 10^−7 M was less than 40% or the value of IC50 was less than 50 nM.); that for `CN(C)c1nc(N[C@H]2CC[C@@H](NC(=S)NCCC3=CCCCC3)CC2)nc2ccccc12` [compound 358], 2 (Class 2: The value of percent of control at 10^−7 M was from 40% to 60% or the value of IC50 was from 50 nM to 200 nM.). As to `CNC(=S)NC[C@H]1CC[C@@H](Nc2nc(N(C)C)c3ccccc3n2)CC1` [compound 610], the class is 3 (Class 3: The value of percent of control at 10^−7 M was more than 60% or the value of IC50 was more than 200 nM.). Same read-out and setting: the result for `CN(C)c1nc(N[C@H]2CC[C@@H](CNC(=O)Nc3c(Cl)cccc3C(F)(F)F)CC2)nc2ccccc12` [compound 488] reads 1 (Class 1: The value of percent of control at 10^−7 M was less than 40% or the value of IC50 was less than 50 nM.); that for `CN(C)c1nc(N[C@H]2CC[C@@H](NC(=O)Nc3cccs3)CC2)nc2ccccc12` [compound 341], 3 (Class 3: The value of percent of control at 10^−7 M was more than 60% or the value of IC50 was more than 200 nM.); that for `Cc1cc(Cl)ccc1NC(=O)NC[C@H]1CC[C@@H](Nc2nc(N(C)C)c3ccccc3n2)CC1` [compound 546], 2 (Class 2: The value of percent of control at 10^−7 M was from 40% to 60% or the value of IC50 was from 50 nM to 200 nM.). On the same count and under the same terms, the result for `CSc1cccc(NC(=O)NC[C@H]2CC[C@@H](Nc3nc(N(C)C)c4ccccc4n3)CC2)c1` [compound 517, N-[(cis-4-{[4-(dimethylamino)quinazolin-2-yl]amino}cyclohexyl)methyl]-N′-[3-(methylthio)phenyl]urea] reads 2 (Class 2: The value of percent of control at 10^−7 M was from 40% to 60% or the value of IC50 was from 50 nM to 200 nM.); that for `CN(C)c1nc(N[C@H]2CC[C@@H](NC(=S)Nc3ccc(OCc4ccccc4)cc3)CC2)nc2ccccc12` [compound 265], 3 (Class 3: The value of percent of control at 10^−7 M was more than 60% or the value of IC50 was more than 200 nM.); that for `CC(C)c1ccccc1NC(=O)NC[C@H]1CC[C@@H](Nc2nc(N(C)C)c3ccccc3n2)CC1` [compound 502, N-[(cis-4-{[4-(dimethylamino)quinazolin-2-yl]amino}cyclohexyl)methyl]-N′-(2-isopropylphenyl)urea], 1 (Class 1: The value of percent of control at 10^−7 M was less than 40% or the value of IC50 was less than 50 nM.). Regarding `CN(C)c1nc(N[C@H]2CC[C@@H](CNC(=S)Nc3ccc(F)cc3)CC2)nc2ccccc12` [compound 599], the class is listed as 3 (Class 3: The value of percent of control at 10^−7 M was more than 60% or the value of IC50 was more than 200 nM.). On the same count and under the same terms, the result for `CN(C)c1nc(N[C@H]2CC[C@@H](CNC(=S)NCc3ccc(Cl)c(Cl)c3)CC2)nc2ccccc12` [compound 682] reads 3 (Class 3: The value of percent of control at 10^−7 M was more than 60% or the value of IC50 was more than 200 nM.). Same read-out and setting: the value for `CN(C)c1nc(N[C@H]2CC[C@@H](CNC(=O)Nc3cc(Cl)c(Cl)cc3Cl)CC2)nc2ccccc12` [compound 474] was 3 (Class 3: The value of percent of control at 10^−7 M was more than 60% or the value of IC50 was more than 200 nM.). On the same count and under the same terms, the value for `Cc1cccc(CNC(=S)N[C@H]2CC[C@@H](Nc3nc(N(C)C)c4ccccc4n3)CC2)c1` [compound 310, N-(cis-4-{[4-(dimethylamino)quinazolin-2-yl]amino}cyclohexyl)-N′-(3-methylbenzyl)thiourea] was 2 (Class 2: The value of percent of control at 10^−7 M was from 40% to 60% or the value of IC50 was from 50 nM to 200 nM.); that for `CN(C)c1nc(N[C@H]2CC[C@@H](CNC(=S)NCc3cccc4ccccc34)CC2)nc2ccccc12` [compound 713] was 3 (Class 3: The value of percent of control at 10^−7 M was more than 60% or the value of IC50 was more than 200 nM.). Consider `CN(C)c1nc(N[C@H]2CC[C@@H](CNC(=S)Nc3c(F)cccc3F)CC2)nc2ccccc12` [compound 637], for which the class was 3 (Class 3: The value of percent of control at 10^−7 M was more than 60% or the value of IC50 was more than 200 nM.). In the case of `CN(C)c1nc(N[C@H]2CC[C@@H](CNC(=O)Nc3ccccc3Cc3ccccc3)CC2)nc2ccccc12` [compound 485], the class is 3 (Class 3: The value of percent of control at 10^−7 M was more than 60% or the value of IC50 was more than 200 nM.).

The assay is the same for the next values; noted with them: class by percent of control at 10^-7 M or by IC50; read-out: class.
In the case of `CN(C)c1nc(N[C@H]2CC[C@@H](CNC(=S)Nc3ccc(-c4cnco4)cc3)CC2)nc2ccccc12` [compound 818], the IC50 is above 200 nM. Same read-out and setting: the value for `COc1ccc(NC(=O)N[C@H]2CC[C@@H](Nc3nc(N(C)C)c4ccccc4n3)CC2)c(OC)c1` [compound 79] was below 50 nM; that for `C=C(C)c1cccc(C(C)(C)NC(=O)N[C@H]2CC[C@@H](Nc3nc(N(C)C)c4ccccc4n3)CC2)c1` [compound 40, N-(cis-4-{[4-(dimethylamino)quinazolin-2-yl]amino}cyclohexyl)-N′-[1-(3-isopropenylphenyl)-1-methylethyl]urea] was below 50 nM; that for `CN(C)c1nc(N[C@H]2CC[C@@H](CNC(=S)Nc3ccc(N4CCOCC4)nc3)CC2)nc2ccccc12` [compound 820] was above 200 nM. Still for that read-out and setting: the value for `Cc1ccc(NC(=O)N[C@H]2CC[C@@H](Nc3nc(N(C)C)c4ccccc4n3)CC2)c([N+](=O)[O-])c1` [compound 44] was above 200 nM; that for `CN(C)c1nc(N[C@H]2CC[C@@H](NC(=S)NCc3ccc4c(c3)OCO4)CC2)nc2ccccc12` [compound 180, N-(1,3-benzodioxol-5-ylmethyl)-N′-(cis-4-{[4-(dimethylamino)quinazolin-2-yl]amino}cyclohexyl)thiourea] was 50 to 200 nM; that for `CN(C)c1nc(N[C@H]2CC[C@@H](NC(=O)Nc3ccc(SC(F)(F)F)cc3)CC2)nc2ccccc12` [compound 137] was above 200 nM. Same read-out and setting: the result for `CN(C)c1nc(N[C@H]2CC[C@@H](NC(=O)NC3CCCC3)CC2)nc2ccccc12` [compound 843, N-cyclophenyl-N′-(cis-4-{[4-(dimethylamino)quinazolin-2-yl]amino}cyclohexyl)urea] reads 50 to 200 nM.

With `CN(C)c1nc(N[C@H]2CC[C@@H](NC(=O)Nc3ccc(C(F)(F)F)cc3)CC2)nc2ccccc12` [compound 136], the IC50 was above 200 nM.

Still in this assay, the particulars now being: class by percent of control at 10^−7 M or by IC50; read-out: class.
Consider `CN(C)c1nc(N[C@H]2CC[C@@H](NC(=O)C(O)c3ccc(Br)cc3)CC2)nc2ccccc12` (relative stereo) [Example 1107, 2-(4-bromophenyl)-N-(cis-4-{[4-(dimethylamino)quinazolin-2-yl]amino}cyclohexyl)-2-hydroxyacetamide], for which the IC50 was in the range of 50 to 200 nM. The same measure, in the same setting: the result for “N-(cis-4-{[4-(dimethylamino)quinazolin-2-yl]amino}cyclohexyl)-6-(3-methylphenoxy)nicotinamide [Example 1055]” reads below 50 nM; that for `CN(C)c1nc(N[C@H]2CC[C@@H](CNC(=O)Nc3cccc(Cl)c3)CC2)nc2ccccc12` [Example 1022, N-(3-chlorophenyl)-N′-[(cis-4-{[4-(dimethylamino)quinazolin-2-yl]amino}cyclohexyl)methyl]urea], 50 to 200 nM. The same measure, in the same setting: the value for `CN(C)c1nc(N[C@H]2CC[C@@H](C(=O)NCc3ccc(C(F)(F)F)cc3)CC2)nc2cc(F)c(F)cc12` [Example 999, cis-4-{[4-(dimethylamino)-6,7-difluoroquinazolin-2-yl]amino}-N-[4-(trifluoromethyl)benzyl]cyclohexanecarboxamide] was 50 to 200 nM.

As to `COc1cc(OC)cc(C(=O)NC[C@@H]2CC[C@H](Nc3nc(N(C)C)c4ccccc4n3)C2)c1` [Example 1120, N-[((1R,3S)-3-{[4-(dimethylamino)quinazolin-2-yl]amino}cyclopentyl)methyl]-3,5-dimethoxybenzamide], the IC50 is below 50 nM. Still for that read-out and setting: the value for `COc1cccc(C(=O)N[C@H]2CC[C@@H](Nc3nc(N(C)C)c4cc(F)c(F)cc4n3)CC2)c1` [Example 1208, N-(cis-4-{[4-(dimethylamino)-6,7-difluoroquinazolin-2-yl]amino}cyclohexyl)-3-methoxybenzamide] was below 50 nM; that for `CN(C)c1nc(N[C@H]2CC[C@@H](NC(=O)C(O)c3ccc(Cl)cc3)CC2)nc2ccccc12` (relative stereo) [Example 1106, 2-(4-chlorophenyl)-N-(cis-4-{[4-(dimethylamino)quinazolin-2-yl]amino}cyclohexyl)-2-hydroxyacetamide] was 50 to 200 nM; that for `CN(C)c1nc(N[C@H]2CC[C@@H](C(=O)NCc3ccccc3Br)CC2)nc2cc(F)c(F)cc12` [Example 1003, cis-N-(2-bromobenzyl)-4-{[4-(dimethylamino)-6,7-difluoroquinazolin-2-yl]amino}cyclohexanecarboxamide] was below 50 nM. The same measure, in the same setting: the result for `CN(C)c1nc(N[C@H]2CC[C@@H](NC(=O)C(O)c3cccc(F)c3F)CC2)nc2ccccc12` (relative stereo) [Example 1109, 2-(2,3-difluorophenyl)-N-(cis-4-{[4-(dimethylamino)quinazolin-2-yl]amino}cyclohexyl)-2-hydroxyacetamide] reads above 200 nM.
